Source: ChEMBL document CHEMBL1201862, “PubChem BioAssay data set” (2004)
Active and inactive are the calls of the source.

What was measured:
Cytochrome P450 2D6 = Cytochrome P450 2D6 (Homo sapiens, UniProt P10635);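 note: CYP2D6 member of a cytochrome P450 panel assay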
Cytochrome P450 1A2 = biological target: T1, Cytochrome P450 1A2 (Homo sapiens, UniProt P05177);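 note: PubChem cytochrome P450 panel assay, CYP1A2 panel member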
T1 sequence (P05177 whole entry): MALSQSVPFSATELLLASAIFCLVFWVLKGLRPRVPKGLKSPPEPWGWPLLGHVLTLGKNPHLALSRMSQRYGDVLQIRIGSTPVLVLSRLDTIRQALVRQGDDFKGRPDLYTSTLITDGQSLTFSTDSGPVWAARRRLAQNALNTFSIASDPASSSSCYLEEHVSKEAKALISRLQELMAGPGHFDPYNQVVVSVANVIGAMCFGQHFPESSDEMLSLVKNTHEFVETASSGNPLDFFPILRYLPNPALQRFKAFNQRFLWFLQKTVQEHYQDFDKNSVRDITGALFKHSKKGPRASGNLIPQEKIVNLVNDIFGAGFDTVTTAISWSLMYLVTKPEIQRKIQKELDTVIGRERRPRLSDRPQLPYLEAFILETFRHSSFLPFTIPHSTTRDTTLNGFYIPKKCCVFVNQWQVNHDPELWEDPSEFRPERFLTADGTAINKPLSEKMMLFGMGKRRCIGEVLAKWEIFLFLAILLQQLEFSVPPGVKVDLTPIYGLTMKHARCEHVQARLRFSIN

Cytochrome P450 3A4 = Cytochrome P450 3A4 (Homo sapiens, UniProt P08684);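 note: CYP3A4 tested as one member of a cytochrome P450 panel screen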
Cytochrome P450 3A4, sequence (P08684 whole entry): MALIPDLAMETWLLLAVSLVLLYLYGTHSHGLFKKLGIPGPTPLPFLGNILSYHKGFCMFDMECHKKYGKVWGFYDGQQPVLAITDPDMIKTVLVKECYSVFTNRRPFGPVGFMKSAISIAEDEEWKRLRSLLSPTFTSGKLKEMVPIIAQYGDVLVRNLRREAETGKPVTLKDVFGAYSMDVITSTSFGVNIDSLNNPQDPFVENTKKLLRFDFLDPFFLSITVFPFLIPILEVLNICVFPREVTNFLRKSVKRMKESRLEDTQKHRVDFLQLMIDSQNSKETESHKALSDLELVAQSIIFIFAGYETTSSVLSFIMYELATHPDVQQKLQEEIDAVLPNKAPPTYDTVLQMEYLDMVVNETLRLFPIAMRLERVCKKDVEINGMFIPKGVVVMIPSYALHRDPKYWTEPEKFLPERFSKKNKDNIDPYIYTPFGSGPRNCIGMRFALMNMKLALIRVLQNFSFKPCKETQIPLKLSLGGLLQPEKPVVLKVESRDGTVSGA

Cytochrome P450 2C9 [1] = biological target: T2, Cytochrome P450 2C9 (Homo sapiens, UniProt P11712)
T2 sequence (P11712 whole entry): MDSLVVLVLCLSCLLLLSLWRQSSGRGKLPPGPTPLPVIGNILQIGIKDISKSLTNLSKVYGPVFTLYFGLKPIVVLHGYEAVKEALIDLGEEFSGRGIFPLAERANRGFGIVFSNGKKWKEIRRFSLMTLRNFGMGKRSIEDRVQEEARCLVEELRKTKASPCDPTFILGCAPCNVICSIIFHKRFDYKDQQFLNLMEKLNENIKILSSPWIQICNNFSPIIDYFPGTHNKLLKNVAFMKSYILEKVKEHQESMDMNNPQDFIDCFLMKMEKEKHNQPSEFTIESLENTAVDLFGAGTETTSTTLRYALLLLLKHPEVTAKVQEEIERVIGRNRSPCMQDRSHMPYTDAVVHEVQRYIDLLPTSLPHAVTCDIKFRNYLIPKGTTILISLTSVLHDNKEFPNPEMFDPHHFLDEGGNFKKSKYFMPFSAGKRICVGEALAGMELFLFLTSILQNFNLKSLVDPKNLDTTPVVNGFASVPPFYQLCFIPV

Aminopeptidase N = biological target: T3, Aminopeptidase N (Plasmodium falciparum FcB1/Columbia, UniProt O96935); experiment: malaria alanyl aminopeptidase activity blockers – biochemical, fluorogenic H-Leu-NHMec substrate, 1536-well (AID 1445); set-up: species or system Plasmodium falciparum 3D7, 3D7
T3 sequence (O96935 whole entry): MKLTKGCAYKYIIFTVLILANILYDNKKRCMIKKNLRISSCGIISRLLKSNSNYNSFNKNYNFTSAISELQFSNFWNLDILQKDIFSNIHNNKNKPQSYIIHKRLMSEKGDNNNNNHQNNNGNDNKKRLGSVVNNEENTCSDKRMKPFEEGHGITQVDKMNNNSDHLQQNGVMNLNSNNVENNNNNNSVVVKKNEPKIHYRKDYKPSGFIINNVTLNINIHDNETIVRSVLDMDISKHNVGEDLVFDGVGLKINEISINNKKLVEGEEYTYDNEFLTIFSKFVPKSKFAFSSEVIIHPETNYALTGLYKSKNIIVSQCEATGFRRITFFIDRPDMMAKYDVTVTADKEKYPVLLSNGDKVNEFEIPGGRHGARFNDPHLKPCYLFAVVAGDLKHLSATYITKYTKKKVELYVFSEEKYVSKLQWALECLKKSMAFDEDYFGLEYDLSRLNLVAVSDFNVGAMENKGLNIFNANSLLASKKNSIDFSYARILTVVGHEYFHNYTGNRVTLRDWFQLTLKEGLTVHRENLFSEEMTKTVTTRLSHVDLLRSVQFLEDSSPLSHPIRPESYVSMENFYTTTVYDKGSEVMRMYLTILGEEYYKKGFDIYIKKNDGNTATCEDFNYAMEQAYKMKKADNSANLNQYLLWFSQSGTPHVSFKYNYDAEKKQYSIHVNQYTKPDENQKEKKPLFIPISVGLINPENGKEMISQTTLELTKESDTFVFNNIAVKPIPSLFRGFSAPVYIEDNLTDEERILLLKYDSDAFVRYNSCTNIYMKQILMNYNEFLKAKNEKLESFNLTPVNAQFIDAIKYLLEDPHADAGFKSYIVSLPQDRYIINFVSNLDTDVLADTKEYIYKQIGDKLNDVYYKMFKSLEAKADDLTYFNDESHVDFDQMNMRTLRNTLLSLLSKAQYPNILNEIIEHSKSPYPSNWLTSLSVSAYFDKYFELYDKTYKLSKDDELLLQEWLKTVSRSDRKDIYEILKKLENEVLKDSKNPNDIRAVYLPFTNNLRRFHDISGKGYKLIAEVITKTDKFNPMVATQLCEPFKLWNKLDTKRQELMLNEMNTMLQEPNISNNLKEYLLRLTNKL

Cytochrome P450 2C19 = Cytochrome P450 2C19 (Homo sapiens, UniProt P33261); experiment: Cytochrome panel assay with activity outcomes. Panel member name: p450-cyp2c19 Compounds with AC50 equal or less than 10 uM are considered active; type: functional; details: read-out: AC50
Cytochrome P450 2C19, sequence (P33261 whole entry): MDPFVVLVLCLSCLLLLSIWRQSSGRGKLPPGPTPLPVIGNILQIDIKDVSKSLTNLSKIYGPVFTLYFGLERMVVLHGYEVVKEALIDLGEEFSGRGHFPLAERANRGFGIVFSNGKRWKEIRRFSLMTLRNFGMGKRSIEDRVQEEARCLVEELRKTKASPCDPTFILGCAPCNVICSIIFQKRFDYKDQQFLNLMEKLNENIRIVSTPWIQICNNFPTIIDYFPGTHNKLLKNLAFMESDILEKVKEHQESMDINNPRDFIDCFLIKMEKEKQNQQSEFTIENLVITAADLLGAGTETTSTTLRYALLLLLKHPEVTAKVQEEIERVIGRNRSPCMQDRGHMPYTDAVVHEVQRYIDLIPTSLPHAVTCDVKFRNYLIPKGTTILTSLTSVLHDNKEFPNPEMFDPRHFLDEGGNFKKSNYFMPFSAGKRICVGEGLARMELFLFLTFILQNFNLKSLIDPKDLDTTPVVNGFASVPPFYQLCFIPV

Genome polyprotein = Genome polyprotein (dengue virus type 2, UniProt P29990); experiment: flavivirus cap methylation enzyme inhibition – biochemical, confirmation dose response, primary screen (AID 588689); type: functional
Genome polyprotein, sequence (P29990 2492-3391 limits assumed): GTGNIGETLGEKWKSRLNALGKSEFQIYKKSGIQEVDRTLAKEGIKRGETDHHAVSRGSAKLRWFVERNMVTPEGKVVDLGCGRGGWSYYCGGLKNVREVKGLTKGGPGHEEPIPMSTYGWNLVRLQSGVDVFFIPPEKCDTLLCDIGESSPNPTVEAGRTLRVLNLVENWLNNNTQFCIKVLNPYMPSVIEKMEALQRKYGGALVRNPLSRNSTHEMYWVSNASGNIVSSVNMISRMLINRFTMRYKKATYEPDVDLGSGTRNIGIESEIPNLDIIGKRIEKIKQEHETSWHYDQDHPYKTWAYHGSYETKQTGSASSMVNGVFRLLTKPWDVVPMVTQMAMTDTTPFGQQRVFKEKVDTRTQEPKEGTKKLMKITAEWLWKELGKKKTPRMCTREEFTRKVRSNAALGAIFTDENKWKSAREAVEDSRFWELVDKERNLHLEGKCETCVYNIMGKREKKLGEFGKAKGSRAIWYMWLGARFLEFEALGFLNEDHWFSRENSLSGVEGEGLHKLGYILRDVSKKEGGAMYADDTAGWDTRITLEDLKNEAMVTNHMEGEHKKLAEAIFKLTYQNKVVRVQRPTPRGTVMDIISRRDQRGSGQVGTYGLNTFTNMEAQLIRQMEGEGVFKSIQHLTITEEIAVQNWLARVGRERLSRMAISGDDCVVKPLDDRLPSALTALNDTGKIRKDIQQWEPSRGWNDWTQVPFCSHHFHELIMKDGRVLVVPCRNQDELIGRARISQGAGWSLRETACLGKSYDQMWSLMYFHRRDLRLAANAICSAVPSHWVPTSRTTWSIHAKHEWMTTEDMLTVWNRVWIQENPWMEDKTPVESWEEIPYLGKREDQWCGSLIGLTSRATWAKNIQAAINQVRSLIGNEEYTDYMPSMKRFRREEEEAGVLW

[2] = biological target: T4, Rac GTPase-activating protein 1 (Homo sapiens, UniProt Q9H0H5); experiment: blockers of MgcRacGAP-driven Rac1 GTP hydrolysis – biochemical, ADP Hunter fluorescence, primary and confirmatory, confirmation (AID 624330); type: functional
T4 sequence (Q9H0H5 whole entry): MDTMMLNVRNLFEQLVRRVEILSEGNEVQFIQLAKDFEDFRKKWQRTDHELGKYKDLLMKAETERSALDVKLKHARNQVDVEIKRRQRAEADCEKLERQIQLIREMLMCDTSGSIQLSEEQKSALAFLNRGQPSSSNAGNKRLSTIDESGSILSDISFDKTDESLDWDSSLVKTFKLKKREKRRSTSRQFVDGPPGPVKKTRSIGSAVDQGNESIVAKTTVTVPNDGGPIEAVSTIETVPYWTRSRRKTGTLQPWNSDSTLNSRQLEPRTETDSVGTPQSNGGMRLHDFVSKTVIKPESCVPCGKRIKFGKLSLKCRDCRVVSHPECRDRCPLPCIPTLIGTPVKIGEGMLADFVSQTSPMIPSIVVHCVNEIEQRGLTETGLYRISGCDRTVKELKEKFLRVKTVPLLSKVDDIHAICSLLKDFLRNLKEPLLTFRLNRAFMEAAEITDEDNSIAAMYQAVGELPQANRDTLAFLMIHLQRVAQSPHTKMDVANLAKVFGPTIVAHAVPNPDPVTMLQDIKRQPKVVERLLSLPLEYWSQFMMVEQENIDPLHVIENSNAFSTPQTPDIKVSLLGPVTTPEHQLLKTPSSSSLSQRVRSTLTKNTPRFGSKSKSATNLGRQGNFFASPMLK

Cytochrome P450 2C9 [3] = biological target: T2, Cytochrome P450 2C9; remark: listed apart in the source

Cytochrome P450 2D6, sequence (P10635 whole entry): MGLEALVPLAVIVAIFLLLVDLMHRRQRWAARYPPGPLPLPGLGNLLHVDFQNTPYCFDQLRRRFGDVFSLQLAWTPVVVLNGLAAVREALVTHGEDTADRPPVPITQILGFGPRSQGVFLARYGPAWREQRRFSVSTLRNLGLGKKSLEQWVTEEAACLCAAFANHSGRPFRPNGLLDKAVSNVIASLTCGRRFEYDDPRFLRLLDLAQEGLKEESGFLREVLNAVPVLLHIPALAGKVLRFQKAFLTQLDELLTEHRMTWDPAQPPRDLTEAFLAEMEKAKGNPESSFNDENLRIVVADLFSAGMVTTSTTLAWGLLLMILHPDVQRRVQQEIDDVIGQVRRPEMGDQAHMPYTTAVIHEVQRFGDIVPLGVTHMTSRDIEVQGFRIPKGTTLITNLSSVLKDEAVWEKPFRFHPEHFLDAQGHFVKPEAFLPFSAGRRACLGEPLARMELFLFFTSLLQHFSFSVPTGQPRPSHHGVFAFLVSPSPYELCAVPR

SMILES	AC50 (Cytochrome P450 1A2)	AC50 (Cytochrome P450 2C9 [1])	IC50 (Aminopeptidase N)	also measured
CN1[C@@H]2CC[C@H]1CC(O[C@@H](c1ccccc1)c1ccccc1N)C2 (stereo not given in full)	15.8 µM (inconclusive)	inconclusive	–	AC50 (Cytochrome P450 2D6): 25.1 µM (inconclusive); AC50 (Cytochrome P450 3A4): 12.6 µM (inconclusive)
COC(=O)c1ccccc1NC(=O)c1ccc(COc2ccc(C)c(C)c2)o1	–	inconclusive	–	AC50 (Cytochrome P450 3A4): 1.41 µM (inconclusive)
COc1ccc2cc(C#N)c(SCC(=O)N3CCCC3)nc2c1	–	–	55.7 µM (active)	–
Cc1cc(C)cc(OCC(=O)Nc2ccc3c4c(cccc24)CC3)c1	2.51 µM (inconclusive)	inconclusive	–	AC50 (Cytochrome P450 2C19): 11.2 µM (inconclusive)
CC(C)(C)NC(=O)C(Cc1ccccc1)NS(=O)(=O)c1ccc2c(c1)CCC(=O)N2 (stereo not given)	–	inconclusive	–	AC50 (Cytochrome P450 2D6): 12.6 µM (inconclusive)
O=C(Nn1c(-c2ccccc2)nc2ccccc2c1=O)c1cccs1	–	–	51.1 µM (active)	–
Cc1nc(S(=O)(=O)c2cccc(Cl)c2)nc2c1CCC2	12.6 µM (inconclusive)	inconclusive	–	–
CCOC(=O)COc1ccc(Br)cc1/C=C\c1nc(O)nc(O)c1[N+](=O)[O-]	–	–	36.5 µM (active)	–
Cc1ccc(S(=O)(=O)NN2C(=O)/C(=C/c3cccs3)SC2=S)cc1	–	–	30.9 µM (active)	IC50 (Genome polyprotein): 35.3 µM (active)
CCOc1ccc(NC(=O)CCNS(=O)(=O)c2ccc3c(c2)c(=O)n(C)c(=O)n3C)cc1	2.51 µM (inconclusive)	inconclusive	–	–
Cc1c(NC(=S)N/N=C/c2ccc(O)cc2)c(=O)n(-c2ccccc2)n1C	–	inconclusive	–	IC50 [2]: 55.6 µM (active)
O=C(N/N=C1\CCCc2ccccc21)c1ccc([N+](=O)[O-])cc1Cl	–	inconclusive	–	–
N=C(N)NC(=O)Cc1c(Cl)cccc1Cl [GUANFACINE]	–	inconclusive	–	AC50 (Cytochrome P450 2C9 [3]): 31.6 µM (inconclusive)
